Assay results reported in patent publication US9351973B2, “Pyrazolopyridyl compounds as aldosterone synthase inhibitors” (Merck Sharp & Dohme Corp., priority 2011, dated 2016).

Assays:
human CYP11B2 = human CYP11B2 (Homo sapiens (Human), UniProt P19099); test: V79-Human-CYP11B2 cell assay (aldosterone formation from 11-deoxycorticosterone, HTRF); type: cell-based; conditions: for IC50: V79 cells stably expressing human CYP11B2, 125 nM 11-deoxycorticosterone, 3 hours
Protocol: (§1) Methods for V79-Human-CYP11B2 and V79-Human-CYP11B1 Assays: V79 cell lines stably expressing the either the human CYP11B2 or the human CYP11B1 enzyme were generated using a standard transfection protocol. V79 cells were transfected with plasmids pTriEx3-Hygro-hCyp11B2 or pTriEx3-Hygro-hCyp11B1 using Lipofectamine2000 reagent. V79 cells that stably express the human CYP11B2 or human CYP11B1 enzyme were selected for and maintained in DMEM supplemented with 10% FBS and 400 μg/mL hygromycin for ˜2 weeks. Single cell clones were generated by infinite dilution in DMEM supplemented with 10% FBS and 400 μg/mL hygromycin until single colonies were obtained. Clones V79-hCYP11B2-CLE9 and V79-hCYP11B1-8CLC7, were determined to produce the most aldosterone and cortisol, respectively, and were selected for inhibitor screening. For testing of inhibitors, cells were harvested at 80% confluency with 0.5% Trypsan-EDTA, washed once in PBS, and reconstituted in DMEM+0.1% BSA media at a cell concentration of 600,000 cells/mL for the CYP11B2 assay and 280,000 cells/mL for the CYP11B1 assay. 25 μL of cells were added to a 384 well tissue culture treated plate and mixed with 0.3 μL of inhibitor or DMSO (1% final DMSO concentration) for 1 hour at 37° C., 5% CO2. After pre-incubation with inhibitor, the reaction was initiated by adding 5 μL of substrate (final concentration of 125 nM 11-deoxycorticosterone for the CYP11B2 assay or 250 nM 11-deoxycortisol for the CYP11B1 assay). The reaction was carried out for 3 hours at 37° C., 5% CO2 and was stopped by harvesting the supernatants. The amount of product in the supernatant (aldosterone for CYP11B2 assay and cortisol for the CYP11B1 assay) was measured using HTRF-based assay kit (Aldosterone HTRF-CisBio#64ALDPEB, Cortisol HTRF-CisBio #63IDC002-CORT). IC50s for the inhibitor were determined by plotting the amount of product formed against the concentration of inhibitor using sigmoidal dose-response curve (variable slope) fit in GraphPad.

human CYP11B1 = human CYP11B1 (Homo sapiens (Human), UniProt P15538); test: V79-Human-CYP11B1 cell assay (cortisol formation from 11-deoxycortisol, HTRF); type: cell-based; conditions: for IC50: V79 cells stably expressing human CYP11B1, 250 nM 11-deoxycortisol, 3 hours
Sequence of human CYP11B1 (P15538 25-503): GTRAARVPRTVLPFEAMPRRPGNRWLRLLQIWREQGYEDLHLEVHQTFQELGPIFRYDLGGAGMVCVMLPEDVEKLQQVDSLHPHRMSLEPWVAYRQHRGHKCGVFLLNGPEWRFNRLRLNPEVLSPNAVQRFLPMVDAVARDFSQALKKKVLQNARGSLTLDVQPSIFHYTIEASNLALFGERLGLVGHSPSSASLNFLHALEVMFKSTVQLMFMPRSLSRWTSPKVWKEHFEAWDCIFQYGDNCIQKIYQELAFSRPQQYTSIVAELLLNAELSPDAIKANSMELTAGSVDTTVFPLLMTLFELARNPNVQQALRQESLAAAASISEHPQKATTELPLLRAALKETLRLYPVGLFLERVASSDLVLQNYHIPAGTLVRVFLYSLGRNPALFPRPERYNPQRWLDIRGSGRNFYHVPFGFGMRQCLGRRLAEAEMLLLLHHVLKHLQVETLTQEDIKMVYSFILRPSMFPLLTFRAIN
Protocol: as §1

Sequence of human CYP11B2 (P19099 25-503): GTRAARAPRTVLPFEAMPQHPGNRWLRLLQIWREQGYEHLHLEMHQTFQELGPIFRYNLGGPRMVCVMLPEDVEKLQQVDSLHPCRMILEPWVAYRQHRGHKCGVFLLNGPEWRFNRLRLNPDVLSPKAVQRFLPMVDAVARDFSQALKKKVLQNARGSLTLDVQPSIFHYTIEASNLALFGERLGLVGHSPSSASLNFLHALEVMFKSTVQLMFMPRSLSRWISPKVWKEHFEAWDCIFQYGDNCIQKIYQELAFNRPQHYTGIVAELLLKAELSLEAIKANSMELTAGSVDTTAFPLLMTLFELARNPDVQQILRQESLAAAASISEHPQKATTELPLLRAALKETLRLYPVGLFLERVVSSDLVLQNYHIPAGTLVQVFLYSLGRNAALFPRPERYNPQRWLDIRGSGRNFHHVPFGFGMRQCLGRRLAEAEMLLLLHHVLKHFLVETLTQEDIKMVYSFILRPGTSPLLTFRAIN

SMILES: CCc1c(-c2cncc(C)c2)nn2c1N(C)C(=O)CC2 [Example 9, 3-ethyl-4-methyl-2-(5-methylpyridin-3-yl)-6,7-dihydropyrazolo[1,5-a]pyrimidin-5(4H)-one]
- IC50 (human CYP11B2): 7.8 nM
- IC50 (human CYP11B1): 2340 nM

SMILES: Cc1cncc(-c2nn3c(c2C)N(C)C(=O)CC3)c1 [Example 8, 3,4-dimethyl-2-(5-methylpyridin-3-yl)-6,7-dihydropyrazolo[1,5-a]pyrimidin-5(4H)-one]
- IC50 (human CYP11B2): 9.8 nM
- IC50 (human CYP11B1): 3720 nM

SMILES: Cc1c(-c2cncc(F)c2)nn2c1NC(=O)CC2 [Example 15, 2-(5-fluoropyridin-3-yl)-3-methyl-6,7-dihydropyrazolo [1,5-a]pyrimidin-5(4H)-one]
- IC50 (human CYP11B2): 30.9 nM
- IC50 (human CYP11B1): 3630 nM

SMILES: CCc1c(-c2cncc(F)c2)nn2c1NC(=O)CC2 [Example 13, 3-ethyl-2-(5-fluoropyridin-3-yl)-6,7-dihydropyrazolo[1,5-a]pyrimidin-5(4H)-one]
- IC50 (human CYP11B2): 11.7 nM
- IC50 (human CYP11B1): 1350 nM

SMILES: Cc1cncc(-c2nn3c(c2C)NC(=O)CC3)c1 [Example 7, 3-methyl-2-(5-methylpyridin-3-yl)-6,7-dihydropyrazolo[1,5-a]pyrimidin-5(4H)-one]
- IC50 (human CYP11B2): 2.2 nM
- IC50 (human CYP11B1): 282 nM

SMILES: O=C1CCn2nc(-c3cncc(F)c3)c(C3CC3)c2N1 [Example 19, 3-cyclopropyl-2-(5-fluoropyridin-3-yl)-6,7-dihydropyrazolo[1,5-a]pyrimidin-5(4H)-one]
- IC50 (human CYP11B2): 102 nM
- inhibition at 10 µM (human CYP11B1): 38%

SMILES: N#Cc1c(-c2cncc(Cl)c2)nn2c1NC(=O)CC2 [Example 26, 2-(5-chloropyridin-3-yl)-5-oxo-4,5,6,7-tetrahydropyrazolo[1,5-a]pyrimidine-3-carbonitrile]
- inhibition at 1 µM (human CYP11B2): 51%
- IC50 (human CYP11B1): 1070 nM

SMILES: Cc1c(-c2cncc(F)c2)nn2c1N(C)C(=O)CC2 [Example 12, 2-(5-fluoropyridin-3-yl)-3,4-dimethyl-6,7-dihydropyrazolo[1,5-a]pyrimidin-5(4H)-one]
- IC50 (human CYP11B2): 19.1 nM
- IC50 (human CYP11B1): 1820 nM

SMILES: Cc1cncc(-c2nn3c(c2C2CC2)NC(=O)CC3)c1 [Example 10, 3-cyclopropyl-2-(5-methylpyridin-3-yl)-6,7-dihydropyrazolo[1,5-a]pyrimidin-5(4H)-one]
- IC50 (human CYP11B2): 13.2 nM
- inhibition at 10 µM (human CYP11B1): 71%

SMILES: Cc1cncc(-c2nn3c(c2C#N)NC(=O)CC3)c1 [Example 25, 2-(5-methylpyridin-3-yl)-5-oxo-4,5,6,7-tetrahydropyrazolo[1,5-a]pyrimidine-3-carbonitrile]
- inhibition at 1 µM (human CYP11B2): 61%
